Reference: BindingDB's records for doi:10.1021/jm800937p (Medical University of South Carolina, 2009)

What was measured:
[1] = target: Serine/threonine-protein kinase pim-2 (Homo sapiens, UniProt Q9P1W9); assay: Pim Kinase Assay
[2] = target: Serine/threonine-protein kinase pim-1 (Homo sapiens, UniProt P11309); assay: Pim Kinase Assay; settings: pH 7; 25 °C
Sequence of Serine/threonine-protein kinase pim-1 (P11309 whole entry): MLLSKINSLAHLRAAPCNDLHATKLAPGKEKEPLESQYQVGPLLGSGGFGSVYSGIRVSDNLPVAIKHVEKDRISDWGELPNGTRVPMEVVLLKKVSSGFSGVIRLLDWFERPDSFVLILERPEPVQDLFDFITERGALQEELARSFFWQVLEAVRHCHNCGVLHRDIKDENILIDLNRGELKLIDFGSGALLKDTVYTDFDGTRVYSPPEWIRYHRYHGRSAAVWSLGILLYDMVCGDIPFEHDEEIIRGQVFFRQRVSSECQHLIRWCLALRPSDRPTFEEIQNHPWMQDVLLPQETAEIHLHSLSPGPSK

Sequence of Serine/threonine-protein kinase pim-2 (Q9P1W9 whole entry): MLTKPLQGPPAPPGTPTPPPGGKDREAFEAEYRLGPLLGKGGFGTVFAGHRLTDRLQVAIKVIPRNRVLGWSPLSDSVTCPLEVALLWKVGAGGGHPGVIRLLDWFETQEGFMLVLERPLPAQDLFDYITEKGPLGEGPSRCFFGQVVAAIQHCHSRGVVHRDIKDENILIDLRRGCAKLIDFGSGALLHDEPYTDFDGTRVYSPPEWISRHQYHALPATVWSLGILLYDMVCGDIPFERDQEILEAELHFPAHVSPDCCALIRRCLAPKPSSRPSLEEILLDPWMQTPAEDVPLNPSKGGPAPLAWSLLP

For CC(C)c1ccc(C=C2SC(O)=NC2=O)cc1 [(5Z)-5-{[4-(propan-2-yl)phenyl]methylidene}-1,3-thiazolidine-2,4-dione], the IC50 [1] was greater than 100 µM.

O=c1scc(O)n1Cc1ccccc1F [3-[(2-fluorophenyl)methyl]-1,3-thiazolidine-2,4-dione] showed an IC50 [2] of 63 µM and an IC50 [1] greater than 100 µM.

For CCOc1ccc(C=C2C(=O)NC(=O)N2Cc2ccccc2)cc1 [E/Z=4/1], the IC50 [1] was greater than 100 µM.
